The values below come from ChEMBL document CHEMBL1140238, “Synthesis of selective SRPK-1 inhibitors: novel tricyclic quinoxaline derivatives” (Bioorg Med Chem Lett, 2005).

Data set [1] in a line: In vitro percent inhibition of Cyclin-dependent kinase 2-cyclin A at 10 uM concentration of compound dissolved in 100% DMSO using 5''-[gamma-33P]-triphosphate.
Data set [2] deals with Ribosomal protein S6 kinase (P70S6K) (Homo sapiens) (UniProt Q9UBS0+P23443). Put plainly: In vitro percent inhibition of Ribosomal protein S6 kinase at 10 uM concentration of compound dissolved in 100% DMSO using 5''-[gamma-33P]-triphosphate. It is filed as protein-complex assay.
The target of data set [3] is RAF proto-oncogene serine/threonine-protein kinase (Homo sapiens) (UniProt P04049). Briefly: In vitro percent inhibition of RAF proto-oncogene serine/threonine-protein kinase at 10 uM concentration of compound dissolved in 100% DMSO using 5''-[gamma-33P]-triphosphate.
In data set [4] the target is Platelet-derived growth factor receptor beta (Homo sapiens) (UniProt P09619). Briefly: In vitro percent inhibition of Platelet-derived growth factor receptor, beta polypeptide at 10 uM concentration of compound dissolved in 100% DMSO using 5''-[gamma-33P]-triphosphate.
Data set [5] addresses Mast/stem cell growth factor receptor Kit (Homo sapiens) (UniProt P10721). Put plainly: In vitro percent inhibition of v-kit Hardy-Zuckerman 4 feline sarcoma viral oncogene homolog at 10 uM concentration of compound dissolved in 100% DMSO using 5''-[gamma-33P]-triphosphate.
Data set [6] addresses Insulin receptor (Homo sapiens) (UniProt P06213). Briefly: In vitro percent inhibition of Insulin receptor at 10 uM concentration of compound dissolved in 100% DMSO using 5''-[gamma-33P]-triphosphate.
Data set [7] deals with Hepatocyte growth factor receptor (Homo sapiens) (UniProt P08581). Put plainly: In vitro percent inhibition of Met proto-oncogene tyrosine kinase at 10 uM concentration of compound dissolved in 100% DMSO using 5''-[gamma-33P]-triphosphate.
For data set [8], the target named is Mitogen-activated protein kinase 3 (Homo sapiens) (UniProt P27361). Put plainly: In vitro percent inhibition of Mitogen-activated protein kinase 3 at 10 uM concentration of compound dissolved in 100% DMSO using 5''-[gamma-33P]-triphosphate.
Data set [9] deals with RAC-alpha serine/threonine-protein kinase (Homo sapiens) (UniProt P31749). Put plainly: In vitro percent inhibition of Protein kinase B, alpha at 10 uM concentration of compound dissolved in 100% DMSO using 5''-[gamma-33P]-triphosphate.
The target in data set [10] is Tyrosine-protein kinase Lck (Homo sapiens) (UniProt P06239). Briefly: In vitro percent inhibition of p56 Lck tyrosine kinase at 10 uM concentration of compound dissolved in 100% DMSO using 5''-[gamma-33P]-triphosphate.
In data set [11] the target is Rho-associated protein kinase 2 (Homo sapiens) (UniProt O75116). Put plainly: In vitro percent inhibition of Protein kinase ROCK2 at 10 uM concentration of compound dissolved in 100% DMSO using 5''-[gamma-33P]-triphosphate.
Data set [12] addresses Casein kinase I isoform alpha (Homo sapiens) (UniProt P48729). Put plainly: In vitro percent inhibition of Casein kinase 1 alpha at 10 uM concentration of compound dissolved in 100% DMSO using 5''-[gamma-33P]-triphosphate.
Data set [13] concerns the target T1, Inhibitor of nuclear factor kappa-B kinase subunit beta (Homo sapiens) (UniProt O14920).
T1 sequence (whole entry): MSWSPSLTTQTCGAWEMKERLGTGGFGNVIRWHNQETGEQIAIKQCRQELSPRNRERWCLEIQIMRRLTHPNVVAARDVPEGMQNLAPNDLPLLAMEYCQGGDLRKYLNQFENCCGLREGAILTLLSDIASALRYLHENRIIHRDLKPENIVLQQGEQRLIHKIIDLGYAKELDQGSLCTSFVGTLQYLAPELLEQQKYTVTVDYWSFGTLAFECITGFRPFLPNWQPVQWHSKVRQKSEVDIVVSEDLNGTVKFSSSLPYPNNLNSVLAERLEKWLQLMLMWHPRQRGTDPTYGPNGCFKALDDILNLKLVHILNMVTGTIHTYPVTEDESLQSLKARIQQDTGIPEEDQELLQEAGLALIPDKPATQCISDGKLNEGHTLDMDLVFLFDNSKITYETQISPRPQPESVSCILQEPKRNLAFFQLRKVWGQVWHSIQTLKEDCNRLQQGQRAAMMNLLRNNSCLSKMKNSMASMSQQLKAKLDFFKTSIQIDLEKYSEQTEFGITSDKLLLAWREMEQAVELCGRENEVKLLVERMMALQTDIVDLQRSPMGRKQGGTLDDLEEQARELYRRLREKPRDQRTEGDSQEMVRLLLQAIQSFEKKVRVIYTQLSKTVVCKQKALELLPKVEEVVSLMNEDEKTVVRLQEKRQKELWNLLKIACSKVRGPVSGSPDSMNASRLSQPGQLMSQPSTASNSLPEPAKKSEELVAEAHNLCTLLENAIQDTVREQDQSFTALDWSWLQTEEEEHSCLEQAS
Briefly: In vitro percent inhibition of I-kappa-B-kinase beta at 10 uM concentration of compound dissolved in 100% DMSO using 5''-[gamma-33P]-triphosphate.

Data set [14] can be described thus: In vitro percent inhibition of Ribosomal S6 kinase 1 at 10 uM concentration of compound dissolved in 100% DMSO using 5''-[gamma-33P]-triphosphate.
Data set [15] concerns the target Proto-oncogene tyrosine-protein kinase Src (Homo sapiens) (UniProt P12931). Put plainly: In vitro percent inhibition of c-Src tyrosine kinase at 10 uM concentration of compound dissolved in 100% DMSO using 5''-[gamma-33P]-triphosphate.
Data set [16] has as its target T2, Tyrosine-protein kinase transforming protein Abl (Abelson murine leukemia virus) (UniProt P00521).
T2 sequence (whole entry): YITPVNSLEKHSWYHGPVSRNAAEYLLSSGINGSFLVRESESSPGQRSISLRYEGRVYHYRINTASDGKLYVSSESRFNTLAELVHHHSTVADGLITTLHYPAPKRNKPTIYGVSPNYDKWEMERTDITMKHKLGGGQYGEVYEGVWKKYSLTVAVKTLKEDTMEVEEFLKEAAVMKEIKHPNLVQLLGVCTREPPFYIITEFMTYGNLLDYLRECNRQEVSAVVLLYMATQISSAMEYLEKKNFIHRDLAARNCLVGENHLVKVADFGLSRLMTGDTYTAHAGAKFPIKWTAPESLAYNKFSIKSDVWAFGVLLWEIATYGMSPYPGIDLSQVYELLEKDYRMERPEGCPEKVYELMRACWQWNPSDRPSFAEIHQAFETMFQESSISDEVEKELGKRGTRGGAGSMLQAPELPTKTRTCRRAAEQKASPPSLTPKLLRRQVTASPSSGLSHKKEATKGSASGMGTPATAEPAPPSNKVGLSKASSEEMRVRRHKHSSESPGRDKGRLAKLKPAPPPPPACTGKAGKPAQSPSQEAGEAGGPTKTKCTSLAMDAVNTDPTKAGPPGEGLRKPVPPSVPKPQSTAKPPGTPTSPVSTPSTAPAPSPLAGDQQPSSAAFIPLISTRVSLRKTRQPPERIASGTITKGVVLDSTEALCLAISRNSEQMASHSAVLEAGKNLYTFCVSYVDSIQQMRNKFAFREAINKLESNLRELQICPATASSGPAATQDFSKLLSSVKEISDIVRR
Put plainly: In vitro percent inhibition of v-Abl tyrosine kinase at 10 uM concentration of compound dissolved in 100% DMSO using 5''-[gamma-33P]-triphosphate.

Data set [17] is described as follows: Partition coefficient (logP). The format is physicochemical. The conditions noted are these: octanol/water.
Data set [18] deals with Epidermal growth factor receptor (Homo sapiens) (UniProt P00533). The note with it: 10 uM.
Data set [19] deals with Mitogen-activated protein kinase 8 (Homo sapiens) (UniProt P45983). Put plainly: In vitro percent inhibition of c-Jun N-terminal kinase 1-alpha 1 at 10 uM concentration of compound dissolved in 100% DMSO using 5''-[gamma-33P]-triphosphate.
In data set [20] the target is Glycogen synthase kinase-3 beta (Homo sapiens) (UniProt P49841). Put plainly: In vitro percent inhibition of Glycogen synthase kinase 3 beta at 10 uM concentration of compound dissolved in 100% DMSO using 5''-[gamma-33P]-triphosphate.

Chain of Rho-associated protein kinase 2 (Homo sapiens) (O75116 whole entry, looked up, canonical isoform): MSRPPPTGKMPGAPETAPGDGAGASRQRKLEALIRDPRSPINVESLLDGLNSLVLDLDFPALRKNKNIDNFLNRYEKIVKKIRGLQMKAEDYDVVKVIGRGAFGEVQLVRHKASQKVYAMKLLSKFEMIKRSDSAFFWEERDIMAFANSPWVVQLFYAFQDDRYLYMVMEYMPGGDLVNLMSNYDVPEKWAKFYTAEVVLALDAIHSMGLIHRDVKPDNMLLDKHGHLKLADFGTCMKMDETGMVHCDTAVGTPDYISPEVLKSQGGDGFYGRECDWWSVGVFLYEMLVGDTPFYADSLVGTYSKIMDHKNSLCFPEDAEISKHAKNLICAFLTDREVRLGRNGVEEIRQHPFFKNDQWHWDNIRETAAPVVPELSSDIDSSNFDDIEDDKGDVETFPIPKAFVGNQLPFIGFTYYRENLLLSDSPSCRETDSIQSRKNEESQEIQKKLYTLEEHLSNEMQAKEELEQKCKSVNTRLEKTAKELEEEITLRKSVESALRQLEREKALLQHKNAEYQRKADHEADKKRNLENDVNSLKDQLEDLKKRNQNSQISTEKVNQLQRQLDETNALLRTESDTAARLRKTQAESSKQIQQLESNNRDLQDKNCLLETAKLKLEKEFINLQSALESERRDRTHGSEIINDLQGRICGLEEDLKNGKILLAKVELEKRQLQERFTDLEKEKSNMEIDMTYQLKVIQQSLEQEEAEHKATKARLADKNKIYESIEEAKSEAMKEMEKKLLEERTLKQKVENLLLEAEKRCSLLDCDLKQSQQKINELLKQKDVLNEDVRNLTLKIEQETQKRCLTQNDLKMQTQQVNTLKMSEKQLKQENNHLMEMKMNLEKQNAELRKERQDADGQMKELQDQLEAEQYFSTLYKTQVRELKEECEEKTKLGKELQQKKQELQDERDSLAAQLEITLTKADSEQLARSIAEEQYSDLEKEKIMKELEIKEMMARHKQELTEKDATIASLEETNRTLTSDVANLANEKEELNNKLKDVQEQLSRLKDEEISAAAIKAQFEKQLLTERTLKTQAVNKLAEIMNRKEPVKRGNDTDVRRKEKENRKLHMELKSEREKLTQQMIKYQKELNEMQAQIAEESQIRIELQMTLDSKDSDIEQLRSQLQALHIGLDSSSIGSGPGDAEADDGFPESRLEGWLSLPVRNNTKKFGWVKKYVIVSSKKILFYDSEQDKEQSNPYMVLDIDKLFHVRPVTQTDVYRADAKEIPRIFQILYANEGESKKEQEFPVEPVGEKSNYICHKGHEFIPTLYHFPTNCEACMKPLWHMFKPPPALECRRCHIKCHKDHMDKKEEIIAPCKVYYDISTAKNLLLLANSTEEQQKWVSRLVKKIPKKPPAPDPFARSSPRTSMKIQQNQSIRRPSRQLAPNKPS
Chain of Insulin receptor (Homo sapiens) (P06213 28-758 limits assumed): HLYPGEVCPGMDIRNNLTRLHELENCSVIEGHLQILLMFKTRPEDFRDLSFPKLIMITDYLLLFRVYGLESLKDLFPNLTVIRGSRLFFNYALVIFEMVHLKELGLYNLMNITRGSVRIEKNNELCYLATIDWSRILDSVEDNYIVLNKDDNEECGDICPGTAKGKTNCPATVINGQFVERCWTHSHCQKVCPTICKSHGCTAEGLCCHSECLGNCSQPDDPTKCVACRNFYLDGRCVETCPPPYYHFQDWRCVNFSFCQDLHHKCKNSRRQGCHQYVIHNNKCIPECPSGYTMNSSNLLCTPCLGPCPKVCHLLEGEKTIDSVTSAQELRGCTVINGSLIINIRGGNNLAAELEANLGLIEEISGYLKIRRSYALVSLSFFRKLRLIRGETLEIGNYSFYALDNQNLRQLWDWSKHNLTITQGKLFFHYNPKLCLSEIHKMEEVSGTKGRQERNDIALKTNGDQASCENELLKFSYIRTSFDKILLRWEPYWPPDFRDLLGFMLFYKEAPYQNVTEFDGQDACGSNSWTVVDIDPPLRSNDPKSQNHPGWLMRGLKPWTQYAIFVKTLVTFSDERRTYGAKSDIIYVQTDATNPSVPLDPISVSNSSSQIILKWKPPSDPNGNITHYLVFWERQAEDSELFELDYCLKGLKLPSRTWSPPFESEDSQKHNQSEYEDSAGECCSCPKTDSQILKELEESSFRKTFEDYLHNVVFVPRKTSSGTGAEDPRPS
Chain of Insulin receptor (Homo sapiens) (P06213 763-1382 limits assumed): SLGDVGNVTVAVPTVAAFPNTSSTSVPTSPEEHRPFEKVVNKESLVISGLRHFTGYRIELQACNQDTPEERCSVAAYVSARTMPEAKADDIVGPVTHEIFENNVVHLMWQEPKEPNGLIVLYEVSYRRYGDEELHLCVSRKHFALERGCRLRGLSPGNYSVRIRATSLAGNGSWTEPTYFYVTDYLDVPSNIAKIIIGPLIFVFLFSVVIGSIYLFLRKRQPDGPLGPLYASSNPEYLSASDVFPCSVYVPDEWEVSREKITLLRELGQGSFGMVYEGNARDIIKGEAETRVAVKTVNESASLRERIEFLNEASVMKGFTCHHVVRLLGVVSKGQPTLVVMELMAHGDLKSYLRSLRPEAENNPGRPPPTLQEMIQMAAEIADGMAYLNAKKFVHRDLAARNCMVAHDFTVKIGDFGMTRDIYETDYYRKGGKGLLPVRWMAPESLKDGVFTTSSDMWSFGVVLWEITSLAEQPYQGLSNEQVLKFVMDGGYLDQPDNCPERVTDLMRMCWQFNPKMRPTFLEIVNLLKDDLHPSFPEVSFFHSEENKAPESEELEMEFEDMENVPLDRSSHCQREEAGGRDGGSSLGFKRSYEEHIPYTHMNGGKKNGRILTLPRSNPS
Chain of Mitogen-activated protein kinase 3 (Homo sapiens) (P27361 whole entry): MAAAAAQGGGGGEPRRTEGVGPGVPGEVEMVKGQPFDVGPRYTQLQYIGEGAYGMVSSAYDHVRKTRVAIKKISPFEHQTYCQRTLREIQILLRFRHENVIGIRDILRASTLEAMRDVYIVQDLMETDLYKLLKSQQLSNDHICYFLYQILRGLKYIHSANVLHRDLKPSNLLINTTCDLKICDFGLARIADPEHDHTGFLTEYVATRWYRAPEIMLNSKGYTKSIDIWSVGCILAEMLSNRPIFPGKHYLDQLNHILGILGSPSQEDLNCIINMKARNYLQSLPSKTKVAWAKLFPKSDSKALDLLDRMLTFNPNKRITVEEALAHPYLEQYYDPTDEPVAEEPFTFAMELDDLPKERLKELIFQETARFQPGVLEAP
Chain of Proto-oncogene tyrosine-protein kinase Src (Homo sapiens) (P12931 2-536 limits assumed): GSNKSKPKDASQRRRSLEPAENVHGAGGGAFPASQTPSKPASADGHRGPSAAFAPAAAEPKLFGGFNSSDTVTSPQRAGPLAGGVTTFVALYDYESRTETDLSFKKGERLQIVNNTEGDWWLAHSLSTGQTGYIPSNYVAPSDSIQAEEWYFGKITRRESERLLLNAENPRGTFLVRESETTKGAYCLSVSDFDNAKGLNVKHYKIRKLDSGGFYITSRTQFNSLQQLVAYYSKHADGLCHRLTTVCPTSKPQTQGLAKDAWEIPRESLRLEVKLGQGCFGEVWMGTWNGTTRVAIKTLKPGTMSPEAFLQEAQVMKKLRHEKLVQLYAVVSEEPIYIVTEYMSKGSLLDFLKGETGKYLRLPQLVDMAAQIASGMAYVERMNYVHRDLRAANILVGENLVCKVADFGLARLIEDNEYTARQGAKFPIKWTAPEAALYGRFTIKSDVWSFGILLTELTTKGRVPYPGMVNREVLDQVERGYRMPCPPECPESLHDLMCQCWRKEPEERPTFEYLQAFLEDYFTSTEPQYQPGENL
Chain of Platelet-derived growth factor receptor beta (Homo sapiens) (P09619 whole entry): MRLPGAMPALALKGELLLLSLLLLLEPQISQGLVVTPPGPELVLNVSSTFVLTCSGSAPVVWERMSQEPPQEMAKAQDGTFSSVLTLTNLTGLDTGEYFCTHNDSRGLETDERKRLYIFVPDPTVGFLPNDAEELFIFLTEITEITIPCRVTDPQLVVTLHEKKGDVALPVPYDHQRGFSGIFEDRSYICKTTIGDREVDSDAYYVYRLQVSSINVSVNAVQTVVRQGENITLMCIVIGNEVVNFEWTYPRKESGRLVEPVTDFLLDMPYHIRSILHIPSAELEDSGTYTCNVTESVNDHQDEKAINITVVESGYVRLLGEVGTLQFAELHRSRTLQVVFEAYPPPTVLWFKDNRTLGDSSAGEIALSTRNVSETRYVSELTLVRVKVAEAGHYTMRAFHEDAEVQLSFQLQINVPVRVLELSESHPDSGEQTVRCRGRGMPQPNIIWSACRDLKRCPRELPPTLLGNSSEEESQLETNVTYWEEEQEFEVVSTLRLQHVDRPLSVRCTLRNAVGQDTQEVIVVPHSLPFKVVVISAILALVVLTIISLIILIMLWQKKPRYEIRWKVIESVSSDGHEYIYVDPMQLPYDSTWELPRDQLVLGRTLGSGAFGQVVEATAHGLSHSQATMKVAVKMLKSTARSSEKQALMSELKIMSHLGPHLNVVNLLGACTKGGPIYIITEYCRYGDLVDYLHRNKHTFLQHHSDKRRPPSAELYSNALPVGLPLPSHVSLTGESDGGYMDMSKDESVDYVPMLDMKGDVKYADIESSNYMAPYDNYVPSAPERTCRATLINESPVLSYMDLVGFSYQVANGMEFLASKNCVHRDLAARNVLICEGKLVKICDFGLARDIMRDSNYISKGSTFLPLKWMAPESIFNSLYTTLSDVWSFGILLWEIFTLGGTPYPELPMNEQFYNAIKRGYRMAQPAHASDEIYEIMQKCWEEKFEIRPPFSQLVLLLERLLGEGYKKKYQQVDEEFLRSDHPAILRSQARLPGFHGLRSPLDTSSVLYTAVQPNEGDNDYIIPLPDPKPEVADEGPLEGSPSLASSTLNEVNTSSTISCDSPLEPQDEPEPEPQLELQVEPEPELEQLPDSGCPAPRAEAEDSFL

Consider `COc1cc2nc(-c3cccs3)c(-c3cccs3)nc2cc1OC`, for which the inhibition in [1] was -5%; in data set [2], -9%; in data set [3], 11%; in data set [4], 7%; in data set [5], -6%; in [6], -7%. The inhibition in data set [7] was -3%; in [8], 10%; in [9], -6%; in data set [10], 9%; in data set [11], 2%; in data set [12] it was -1%. For the same compound, the inhibition is 10% in data set [13]; 15% in data set [14]; 10% in data set [15]; -2% in [16]; 10% in [18]. The logP in data set [17] came out at 4.

For the compound `c1csc(-c2nc3cc4ccccc4cc3nc2-c2cccs2)c1`, the inhibition in data set [19] came out at 6%; in [1], 3%; in data set [2] it was 8%; in data set [20], 6%; in data set [3], 16%; in [4], 15%. The inhibition was 8% in [5]; 55% in [6]; 43% in [7]; 11% in data set [8]; 12% in data set [9]; 19% in data set [11]. Besides, the inhibition stood at 7% in data set [12]; 6% in [13]; 6% in [14]; 20% in [15]; 4% in data set [16]; 6% in data set [18]. In data set [17], the logP came to 5.98.

On to `COC(=O)Cc1csc(-c2nc3cc4ccccc4cc3nc2-c2cc(CC(=O)OC)cs2)c1`, for which the inhibition in data set [19] was -10%; in [1], -4%; in [2], -5%; in data set [20], 2%; in data set [3], 17%; in [4] it was 9%. The inhibition in data set [5] is 1%; in data set [7], -2%; in data set [8], 11%; in [9] it was 1%; in [10] it was 4%; in [11], 4%. The inhibition in [12] was 3%; in [13], 14%; in data set [14], 13%; in data set [15], 8%; in data set [16], -10%; in data set [18], 11%. For the same compound, the lipophilicity (logP) in data set [17] stood at 5.

For the compound `COc1cc2nc3nc(-c4cccs4)c(-c4cccs4)nc3nc2cc1OC`, the inhibition in data set [1] was 27%; in data set [2], -2%; in data set [20] it was 4%; in data set [3], 8%; in data set [4] it was 5%; in [5], -4%. In addition, the inhibition in data set [6] was -7%; in data set [7] it was 12%; in data set [8] it was 20%; in [9] it was -4%; in data set [10] it was -7%; in [11], -1%. The inhibition is 2% in [12]; 10% in data set [13]; 48% in data set [14]; 9% in data set [15]; -1% in data set [16]; 20% in data set [18]. In [17], the logP worked out at 4.79.

For the compound `c1csc(-c2nc3cc4c(cc3nc2-c2cccs2)OCCO4)c1`, the inhibition in data set [19] came to 24%; in data set [1], 1%; in data set [3], 4%; in [4] it was 61%; in data set [5], 46%; in data set [6], 48%. Besides, the inhibition in data set [7] was found to be 42%; in data set [8], 31%; in data set [10], 53%; in data set [11] it was 41%; in [12] it was 8%; in [13] it was 38%. Moreover, the inhibition amounted to 19% in [14], 84% in data set [15], 11% in [16] and 34% in [18]. The compound further yielded a logP in data set [17] of 5.

One may read the inhibition as the drop in the measured response relative to a control, in per cent. For orientation: logP means the decadic logarithm of the partition coefficient of the neutral form, usually between octanol and water. Lower therefore signals lower lipophilicity.
